Consider 14 compounds from ChEMBL document CHEMBL1126472, “Multipurpose receptor ligands: -carboline cholecystokinin antagonists” (Bioorg Med Chem Lett, 1993).

Assay [1] concerns the target T1, Cholecystokinin receptor type A (Rattus norvegicus, UniProt P30551).
T1 sequence (P30551 whole entry): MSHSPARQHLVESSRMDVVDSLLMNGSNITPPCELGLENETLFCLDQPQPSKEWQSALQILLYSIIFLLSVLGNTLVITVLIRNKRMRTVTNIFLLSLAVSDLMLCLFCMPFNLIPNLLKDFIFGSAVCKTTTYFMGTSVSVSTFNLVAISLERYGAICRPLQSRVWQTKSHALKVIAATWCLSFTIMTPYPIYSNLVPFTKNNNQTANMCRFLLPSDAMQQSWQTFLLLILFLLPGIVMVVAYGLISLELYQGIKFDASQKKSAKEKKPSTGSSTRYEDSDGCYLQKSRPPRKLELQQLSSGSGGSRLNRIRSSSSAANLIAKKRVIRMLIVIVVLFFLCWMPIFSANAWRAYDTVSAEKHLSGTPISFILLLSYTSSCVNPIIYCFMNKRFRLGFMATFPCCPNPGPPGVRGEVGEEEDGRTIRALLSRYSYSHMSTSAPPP
Nature of the assay: Tested for its activity to inhibit the binding of [125I]CCK-33 to Cholecystokinin type A receptor in rat pancreas.

Assay [2] is described as follows: Tested for its activity to inhibit the binding of [125I]CCK-33 to Cholecystokinin type B receptor in guinea pig brain.
Assay [3] is described as follows: Tested for its activity to inhibit the binding of [125I]gastrin to gastric glands (gastrin) in guinea pig.

The structures appear in SMILES notation. pIC50: −log10 of the molar value. Where only a bound is given, the exact number is not on record here.

Consider `O=C(Nc1cc2c3ccccc3nc-2c[nH]1)c1ccccc1`, for which the pIC50 (in general, −log10 of the IC50, conventionally taken in molar units) in assay [1] was 5.15.
Turning to `CN1C(=O)[C@@H](NC(=O)Nc2ccc(Cl)cc2)N=C(c2ccccc2)c2ccccc21`, the values for the pIC50 in assay [2] and in assay [3] were 6.39 and 6.27, respectively.
For the compound `Cn1c(C(=O)Nc2cc3c4ccccc4nc-3c[nH]2)cc2ccccc21`, the pIC50 in assay [1] was 6.15.
On the same count and under the same terms, to `COC(=O)c1cc2c(cn1)[nH]c1ccccc12` [BETA-CCM] belongs less than 4.00; to `O=C(Cc1ccccc1)Nc1cc2c3ccccc3nc-2c[nH]1`, 7.40; to `CN1C(=O)[C@@H](NC(=O)Nc2cc3c4ccccc4nc-3c[nH]2)N=C(c2ccccc2)c2ccccc21`, 6.96.
On to `CN1C(=O)[C@H](NC(=O)Nc2ccc(Cl)cc2)N=C(c2ccccc2)c2ccccc21`, for which the pIC50 in assay [2] was 8.26; in assay [3] it was 7.92.
On to `Nc1cc2c(cn1)[nH]c1ccccc12`, for which, in assay [1], the pIC50 is less than 4.00.
For `O=C(Cc1c[nH]c2ccccc12)Nc1cc2c3ccccc3nc-2c[nH]1`, in assay [1], the pIC50 was 7.62.
`CN1C(=O)C(NC(=O)Cc2c[nH]c3ccccc23)N=C(c2ccccc2)c2ccccc21` (stereo unspecified): the pIC50 in assay [1] is 6.00. This pIC50 is 1.62 log units lower than that of the compound before.
Consider `CN1C(=O)[C@H](NC(=O)Nc2cc3c4ccccc4nc-3c[nH]2)N=C(c2ccccc2)c2ccccc21`, for which the pIC50 in assay [1] was 7.05.
Same read-out and setting: to `O=C(Nc1ccc(Cl)cc1)Nc1cc2c3ccccc3nc-2c[nH]1` belongs 7.07; to `O=C(CCc1ccccc1)Nc1cc2c3ccccc3nc-2c[nH]1`, 6.48.
On the same count and under the same terms, to `O=C(Nc1cc2c3ccccc3nc-2c[nH]1)c1ccc(Cl)cc1` belongs 5.46.
